# Data from patent US6380244B2, “Nutritional and therapeutic uses of 3-hydroxyalkanoate oligomers” (Metabolix, Inc., priority 1998, dated 2002).
# Legend:
# [1] = Single oral bolus of triolide in a fasted dog, blood ketone bodies and glucose (Example 2); format: in vivo, mongrel dog
# Procedure: A mongrel dog (21 kg) was fasted overnight and given an oral bolus of triolide (R,R,R)-4,8,12-trimethyl-1,5,9-trioxadodeca-2,6,10-trione, 10 g) in gelatin. This amount of triolide is equivalent to 5% of the daily caloric requirement. Blood was sampled at 0, 15, 30, 45, and 60 minutes and every half hour thereafter for a total of six hours.
# The blood samples were analyzed for glucose via enzymatic assay, and for acetoacetate and 3-hydroxybutyrate via GC-mass spectrometry (GC-MS) assay. As shown by FIG. 1, within 90 minutes, the blood concentrations of 3-hydroxybutyrate and acetoacetate reached 0.3 and 0.05 mM, and the total ketone bodies in the blood were 0.36 mM. After the fourth hour, the total ketone body concentration remained elevated at 0.24 mM. Glucose concentration in the blood dropped from 6.5 mM to 5 mM during the experiment.
# [2] = Repeated feeding of meat plus triolide to a fasted dog, blood ketone bodies, glucose, tolerability (Example 3); format: in vivo, mongrel dog
# Procedure: A mongrel dog (25.5 kg) was fasted overnight and fed a mixture of meat (111 g) and triolide ((R,R,R)-4,8,12-trimethyl-1,5,9-trioxadodeca-2,6,10-trione, 23.5 g). This amount of triolide is equivalent to 10% of the daily caloric requirement. Identical amounts of meat and triolide were given at 0, 120, 360 and 540 minutes. Blood was sampled at regular intervals for 12 hours.
# The blood samples were analyzed for acetoacetate and 3-hydroxybutyrate. Within 30 minutes, the concentrations of 3-hydroxybutyrate and acetoacetate reached 0.85 and 0.15 mM, respectively. The total ketone bodies in the blood were 1.0 mM. After the third feeding of triolide, total ketone body concentration remained elevated and steady at about 0.6 mM. Glucose concentration in the blood remained within the normal range of 3.1 to 5.9 mM. […] By the next morning, the ketone body concentration in the blood had returned to the normal value of 0.02 mM.
# [3] = four feedings of 23.5 g triolide, throughout the experiment
# [4] = meat + triolide 23.5 g, within 30 minutes
compound,measurement,setting,value
"C[C@@H]1CC(=O)O[C@H](C)CC(=O)O[C@H](C)CC(=O)O1 [triolide, (R,R,R)-4,8,12-Trimethyl-1,5,9-Trioxadodeca-2,6,10-Trione]",blood concentration of 3-hydroxybutyrate,"[1]; oral bolus 10 g triolide in gelatin (5% of daily caloric requirement), within 90 minutes, GC-MS",300 µM
same,total ketone bodies in the blood,"[1]; oral bolus 10 g triolide in gelatin, within 90 minutes",0.36 mM
same,blood concentration of acetoacetate,"[1]; oral bolus 10 g triolide in gelatin, within 90 minutes, GC-MS",50 µM
same,total ketone body concentration,"[1]; oral bolus 10 g triolide, after the fourth hour, remained elevated",0.24 mM
same,total ketone body concentration,"[2]; after the third feeding of triolide, elevated and steady",about 0.6 mM
same,ketone body concentration in the blood,"[2]; by the next morning, returned to the normal value",0.02 mM
same,other clinical chemistry profiles,[2]; [3],remained normal
same,"signs of distress, unusual behavior, abnormal bodily functions (diarrhea, nausea, vomiting, frequent urination)",[2]; [3],no signs of distress
same,blood concentration of 3-hydroxybutyrate,"[2]; meat 111 g + triolide 23.5 g (10% of daily caloric requirement) at 0, 120, 360, 540 min, within 30 minutes",850 µM
same,blood concentration of acetoacetate,[2]; [4],150 µM
same,total ketone bodies in the blood,[2]; [4],1.0 mM
